Each block holds one compound with its values, some of them ahead of it.
Legend:
[1] = target: T1, Mineralocorticoid receptor (Homo sapiens) (UniProt P08235)
T1 sequence (whole entry): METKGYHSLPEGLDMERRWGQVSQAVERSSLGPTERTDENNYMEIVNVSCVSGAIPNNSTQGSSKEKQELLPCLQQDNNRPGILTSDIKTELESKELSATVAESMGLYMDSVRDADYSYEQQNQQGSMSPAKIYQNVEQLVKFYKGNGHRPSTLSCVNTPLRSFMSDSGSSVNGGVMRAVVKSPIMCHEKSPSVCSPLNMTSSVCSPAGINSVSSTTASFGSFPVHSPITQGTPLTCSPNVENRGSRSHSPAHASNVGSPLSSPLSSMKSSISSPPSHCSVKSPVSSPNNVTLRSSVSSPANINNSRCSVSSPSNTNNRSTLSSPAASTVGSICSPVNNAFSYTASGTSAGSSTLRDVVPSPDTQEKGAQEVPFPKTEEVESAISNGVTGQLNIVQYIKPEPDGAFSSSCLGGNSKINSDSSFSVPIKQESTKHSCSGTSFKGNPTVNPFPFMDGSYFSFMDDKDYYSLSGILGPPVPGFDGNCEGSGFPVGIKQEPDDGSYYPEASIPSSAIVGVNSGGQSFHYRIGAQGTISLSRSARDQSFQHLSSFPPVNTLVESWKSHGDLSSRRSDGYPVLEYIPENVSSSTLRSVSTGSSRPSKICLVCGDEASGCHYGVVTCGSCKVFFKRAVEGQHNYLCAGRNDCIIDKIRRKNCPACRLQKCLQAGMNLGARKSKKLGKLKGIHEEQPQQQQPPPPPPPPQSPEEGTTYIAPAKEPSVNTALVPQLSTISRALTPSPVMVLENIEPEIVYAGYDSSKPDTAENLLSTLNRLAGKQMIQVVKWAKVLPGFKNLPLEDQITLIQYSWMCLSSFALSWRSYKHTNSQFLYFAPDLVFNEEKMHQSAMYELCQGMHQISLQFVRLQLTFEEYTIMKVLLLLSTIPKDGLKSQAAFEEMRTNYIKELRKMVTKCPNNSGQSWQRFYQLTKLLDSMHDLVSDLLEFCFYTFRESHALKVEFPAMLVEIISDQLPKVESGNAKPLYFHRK
Description: Antagonist activity against human mineralocorticoid receptor as displacement of radioligand

[2] = target: T2, Progesterone receptor (Homo sapiens) (UniProt P06401); assay: Antagonist activity against human Progesterone receptor
T2 sequence (whole entry): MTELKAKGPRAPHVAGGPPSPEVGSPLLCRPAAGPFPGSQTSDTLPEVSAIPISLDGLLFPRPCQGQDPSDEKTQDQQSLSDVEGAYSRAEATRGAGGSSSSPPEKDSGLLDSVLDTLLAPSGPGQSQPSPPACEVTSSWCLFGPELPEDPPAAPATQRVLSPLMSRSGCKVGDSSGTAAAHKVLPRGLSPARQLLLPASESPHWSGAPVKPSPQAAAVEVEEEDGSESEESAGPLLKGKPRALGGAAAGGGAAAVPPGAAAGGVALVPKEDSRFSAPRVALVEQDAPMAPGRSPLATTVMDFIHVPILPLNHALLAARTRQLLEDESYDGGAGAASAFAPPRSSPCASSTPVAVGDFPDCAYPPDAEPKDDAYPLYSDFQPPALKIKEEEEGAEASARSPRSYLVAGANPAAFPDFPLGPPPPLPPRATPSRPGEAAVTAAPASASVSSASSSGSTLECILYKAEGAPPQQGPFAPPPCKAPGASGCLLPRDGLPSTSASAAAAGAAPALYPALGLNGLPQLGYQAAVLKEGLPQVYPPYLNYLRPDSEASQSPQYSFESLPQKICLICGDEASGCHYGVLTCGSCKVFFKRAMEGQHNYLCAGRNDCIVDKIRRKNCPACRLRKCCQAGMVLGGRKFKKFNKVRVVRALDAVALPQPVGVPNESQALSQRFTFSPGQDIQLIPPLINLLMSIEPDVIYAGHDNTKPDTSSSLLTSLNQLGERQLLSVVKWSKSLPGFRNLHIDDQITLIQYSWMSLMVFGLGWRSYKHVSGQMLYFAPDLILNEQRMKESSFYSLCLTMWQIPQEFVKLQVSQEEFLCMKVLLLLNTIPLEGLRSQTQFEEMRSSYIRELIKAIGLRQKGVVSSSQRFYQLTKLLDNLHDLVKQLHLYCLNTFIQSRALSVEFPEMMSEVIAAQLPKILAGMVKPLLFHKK

[3] = target: T3, Estrogen receptor (Homo sapiens, UniProt P03372); assay: Displacement of radioligand from human Estrogen receptor alpha
T3 sequence (P03372 whole entry): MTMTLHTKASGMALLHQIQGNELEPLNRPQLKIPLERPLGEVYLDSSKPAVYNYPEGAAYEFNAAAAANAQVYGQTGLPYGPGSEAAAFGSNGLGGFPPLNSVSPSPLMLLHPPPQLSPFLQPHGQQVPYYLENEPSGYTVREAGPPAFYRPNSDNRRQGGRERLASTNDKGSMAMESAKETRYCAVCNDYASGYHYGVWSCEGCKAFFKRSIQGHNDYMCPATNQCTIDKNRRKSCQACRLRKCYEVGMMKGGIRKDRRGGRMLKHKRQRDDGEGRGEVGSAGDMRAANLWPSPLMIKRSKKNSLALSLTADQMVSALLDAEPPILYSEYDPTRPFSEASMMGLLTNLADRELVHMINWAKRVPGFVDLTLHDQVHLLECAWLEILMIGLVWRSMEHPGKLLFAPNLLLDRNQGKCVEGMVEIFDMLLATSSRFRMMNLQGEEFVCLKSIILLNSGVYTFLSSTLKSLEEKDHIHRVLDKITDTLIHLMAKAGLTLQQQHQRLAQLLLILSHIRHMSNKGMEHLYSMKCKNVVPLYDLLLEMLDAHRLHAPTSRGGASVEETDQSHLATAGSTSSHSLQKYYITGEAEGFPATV

[4] = target: T1, Mineralocorticoid receptor (Homo sapiens); details: 1 uM
Description: Antagonist activity against human mineralocorticoid receptor as displacement of radioligand, percent inhibition at 1 uM

[5] = target: Estrogen receptor beta (Homo sapiens, UniProt Q92731); assay: Displacement of radioligand from human ER beta
Sequence of Estrogen receptor beta (Q92731 whole entry): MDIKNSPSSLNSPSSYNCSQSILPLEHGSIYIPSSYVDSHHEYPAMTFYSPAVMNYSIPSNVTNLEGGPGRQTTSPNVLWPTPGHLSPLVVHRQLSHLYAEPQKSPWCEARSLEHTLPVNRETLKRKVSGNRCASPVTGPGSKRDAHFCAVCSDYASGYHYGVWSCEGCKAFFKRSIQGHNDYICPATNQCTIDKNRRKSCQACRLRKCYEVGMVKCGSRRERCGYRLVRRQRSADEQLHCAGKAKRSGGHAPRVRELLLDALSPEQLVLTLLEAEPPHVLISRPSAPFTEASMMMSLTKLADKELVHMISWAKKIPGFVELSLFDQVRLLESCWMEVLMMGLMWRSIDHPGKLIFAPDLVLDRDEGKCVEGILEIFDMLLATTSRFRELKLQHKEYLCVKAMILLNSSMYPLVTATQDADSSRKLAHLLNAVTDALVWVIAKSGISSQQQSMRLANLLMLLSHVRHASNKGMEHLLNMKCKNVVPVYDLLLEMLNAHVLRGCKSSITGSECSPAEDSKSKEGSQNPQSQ

[6] = target: T2, Progesterone receptor (Homo sapiens); assay: Displacement of 10 nM [3H]dexamethasone from human Progesterone receptor, percent inhibition at 10 uM

Kif [1]: > 1000 nM
Compound: O=C1CC[C@@]2(Cc3ccccc3)c3ccc(O)cc3CC[C@@H]2C1

Kif [2]: > 1000 nM
Compound: CC#C[C@@]1(O)CC[C@@]2(Cc3ccccc3)c3ccc(O)cc3CC[C@@H]2C1

Compound: CC#C[C@]1(O)CCC2C3CCC4=CC(=O)CC[C@]4(Cc4ccc(C)cc4)C3=CC[C@@]21C (stereo partly specified)
Ki [3]: > 10 µM | inhibition [4]: 0% | Ki [5]: > 10 µM | inhibition [6]: 30%
